In one data set the test system is miR-155. Kind of data set: miR-155 gene expression by RT-PCR in SUDHL-2 cells. The note with it: SUDHL-2, 500 nM, 48 hours. The class given is cell-based. The method, then: Data represented as mean±standard error mean (SEM). Unpaired two-tailed t-test was used for statistical analysis, **p<0.01. The analysis was performed relative to Scr-γtcPNA-155.
Similarly, 400,000 SUDHL-2 cells were seeded in a 12 well plate and treated with 500 nM Scr gamma tcPNA-155, PNA-155 and gamma tcPNA-155 for 48 hrs in an incubator (37° C. and 5% CO2). The RNA was extracted and the samples for gene expression were prepared in the same manner as described above.

Another data set deals with U2932 cells. Kind of data set: Cell viability by trypan blue assay, U2932. In kind it is cell-based, human. As for the experimental part: Cell viability was performed using trypan blue-based assay (n=3 technical triplicate), data represented as mean±(SEM), * represents the statistical analysis were performed relative to Scr-γtcPNA-155 and ♦ represent analysis performed relative to PNA-155. *p<0.05, **p<0.01, ***p<0.001 and ****p<0.0001, ♦p<0.05, ♦♦p<0.01, unpaired two-tailed t-test was used for statistical analysis. The experiment was repeated three times and in triplicate.
Cell viability was performed using trypan blue-based assay (n=3), data represented as mean±standard error mean (SEM), *p<0.05, **p<0.01. Unpaired two-tailed t-test was used for statistical analysis.
Cell viability was performed using trypan blue-based assay (n=3), data represented as mean±standard error mean (SEM).
Cell viability by trypan blue assay: Diffused large B cell lymphoma (DLBCL) cell lines like SUDHL-2 (ATCC® CRL-2956™) and SUDHL-5 (ATCC® CRL-2958™) cells were purchased from ATCC (Virginia, USA). The cells were regularly tested for Mycoplasma contamination using MycoAlert™ Mycoplasma detection kit (Lonza). All the cells used in the experiment were passaged less than 8 times. 10,000 U2932, SUDHL-5, or SUDHL-2 cells were plated in a 96 well plate. The cells were treated with different doses (500 nM, 1000 nM, 2000 nM and 4000 nM) of PNA-155, gamma tcPNA-155 or Scr-γtcPNA-155 for 48 hrs in an incubator (37° C. and 5% CO2). The dead cells were marked with trypan blue. Further counting was performed using an automated cell counter (Bio-rad).

From patent US20260092085A1, “SYNTHETIC TRIPLEX PEPTIDE NUCLEIC ACID-BASED INHIBITORS FOR CANCER THERAPY” (University of Connecticut, priority 2022, published 2026) come the findings set out here.

For “γtcPNA-155: serine gamma tail-clamp anti-miR-155 PNA, RR-TJJJJ-OOO-ACCCCTATCACGATTAGCATTAA-RR, SEQ ID NO: 3 (all peptide nucleic acid (PNA); serine gamma PNA, tail-clamp TJJJJ via linkers, Arg-Arg at both ends)”, the “decrease in miR-155 gene expression” value in the data set on miR-155 is recorded as 63%. Moreover, in the data set with U2932 cells (U2932, 500 nM, compared to PNA-155 treated group), the “reduction in cell viability at 500 nM” value was “significant reduction in cell viability”. For the same substance, the “decrease in cell viability” value in the data set on U2932 cells (U2932, 4UM, 48 hours) is on record as roughly 80%.
